Test results published in US9884065B2, “Inhibiting activity of senescent cells using a glucocorticoid” (Buck Institute for Research on Aging, priority 2011, dated 2018).

Experiments:
NF-κB [1] = test: NF-κB reporter-luciferase transactivation assay; type: cell-based, human; settings: senescent cells; 500 nM corticosterone or 100 nM cortisol
Protocol: (§1) Nuclear extracts were prepared using the nuclear extract kit (Active Motif), and NF-κB DNA binding was determined using the TransAM NF-κB p65 kit (Active Motif). For transactivation assays, cells infected with the NF-κB reporter-luciferase lentivirus were lysed in buffer (Promega), and luciferase activity was normalized to cell number, as described (Freund et al., 2011, EMBO J. 30:1536-1548).

NF-κB [2] = test: NF-κB DNA binding activity in nuclear extracts (TransAM NF-κB p65 kit); type: cell-based, human; settings: senescent cells; 500 nM corticosterone or 100 nM cortisol
Protocol: as §1

IL-1α = test: Immunostaining for IL-1α in HCA2 cells; type: cell-based, human; settings: senescent cells 7 days after irradiation; 500 nM corticosterone or 100 nM cortisol
Protocol: (FIG. 14B) mRNA extracted from cells described in (FIG. 14A) was used to quantify transcripts for IL-6 (normalized to tubulin). (FIG. 14C) Pre and Sen (XRA) cells, prepared as described in (FIG. 14A), were immunostained for IL-1α. Sen (XRA) cells were immunostained 7 days after irradiation.
(§2) Cells were cultured in 8-well chamber slides, fixed in 4% formaldehyde (Sigma) for 10 min at 4° C. and permeabilized in PBS-0.5% Triton for 10 min in 4° C.

[3] = tested on: IL-1α/IL-1 receptor (IL-1R) signaling; test: Western blotting of HCA2 lysates for IRAK1, IκBα, RelA; type: cell-based, human; settings: senescent cells; 500 nM corticosterone or 100 nM cortisol
Protocol: Cells were lysed in RIPA buffer. Lysates were sonicated (10 sec), followed by centrifugation. Samples were incubated at 70° C. for 10 min, loaded on 4-15% gradient tris-glycine SDS-polyacrylamide gels (Invitrogen) and separated by electrophoresis. Proteins were transferred to PVDF membranes, blocked in TBST 5% milk for 1 hour at room temperature, and probed overnight at 4° C. with primary antibodies in blocking buffer. Membranes were washed in TBST, and incubated with horseradish peroxidase-conjugated secondary antibodies for 1 hour at room temperature. Blots were developed using Western detection substrate (GE Healthcare).
Primary antibodies and dilutions were: anti-GR (SC-8992, Santa Cruz; 1:500), anti-actin (ab6276, Abcam; 1:50000), anti-MCR (SC-11412, Santa Cruz; 1:500), anti-IRAK1 (SC-5288, Santa Cruz; 1:500), anti-IκBα (#9247, Cell Signaling; 1:500), anti-RelA (SC-109, Santa Cruz; 1:500), and anti-53BP1 (A300-272A, Bethyl; 1:500).

[4] = tested on: T47D human breast cancer cells; test: Invasion assay: conditioned media from HCA2 fibroblasts stimulating T47D invasion of basement membrane; type: cell-based; settings: HCA2 fibroblasts treated with corticosterone or cortisol for 10 d
Protocol: T47D human breast cancer cells (120,000 cells/well) were plated atop a layer of Matrigel in the upper chambers of Transwells (BD Biosciences). The lower chambers contained conditioned media from pre-senescent or senescent HCA2 fibroblasts treated with corticosterone or cortisol for 10 d. After 18 h, cells that migrated to the underside of the upper chamber filter were stained and counted, as described (Coppe et al., 2008, PLoS Biol. 6:2853-2868; Coppe et al., 2010, PLoS ONE 5:e9188).

HCA2 human fibroblasts = settings: 2.5 μM, 48 hours
Protocol: The initial drug screen was performed in a 96-well format using automated liquid handling with a Biomek FX (Beckman Coulter, CA). Senescent cells were plated 24 hours after X-irradiation at 7,500 cells per well in 96-well plates. Six days after plating the senescent cells, the pre-senescent cells were plated at 7,500 cells per well in 96-well plates. Twenty-four hours after pre-senescent plating, both pre-senescent and senescent cells were washed and incubated in low (0.2%) serum for 48 hours to arrest cell proliferation of the pre-senescent cells. Drugs from the Prestwick Chemical Library, which contains 1120 bio-available compounds in DMSO, were given to the cells at 2.5 μM in media containing 0.2% serum. Forty-eight hours after compound addition, the medium in each well was removed and frozen for assay by ELISA to quantitate the levels of IL-6. The cells, which remained in the wells after the medium was removed, were lysed and ATP levels were measured (ATPlite 1-step assay, Perkin Elmer, MA) to exclude compounds that lowered IL-6 through toxicity (cell death). Experimental wells in each plate were normalized to plate mean or same-plate DMSO controls for the ELISA and ATP assays, respectively.
To identify small molecules that may be potential SASP modulators, a screening strategy that entailed administering compounds to parallel 96-well plates containing human fibroblasts (strain HCA2) that were either quiescent or senescent was developed. The compounds tested comprised the Prestwick Chemical Library, a collection of approximately 1,120 Federal Drug Administration-approved drugs. The compounds were added to duplicate wells at a single concentration (2.5 μM). After 48 hours, the medium from each well was removed, and the cells were lysed. […] Cell lysates were assayed for ATP as a surrogate for cell number.

[5] = target: T1, glucocorticoid receptor (GR) (Homo sapiens, UniProt P04150); test: Immunostaining for GR localization in HCA2 cells; type: cell-based; settings: senescent HCA2 cells; 500 nM corticosterone or 100 nM cortisol
T1 construct: endogenous in cells; host or cells: HCA2 human fibroblasts
T1 sequence (P04150 1-777): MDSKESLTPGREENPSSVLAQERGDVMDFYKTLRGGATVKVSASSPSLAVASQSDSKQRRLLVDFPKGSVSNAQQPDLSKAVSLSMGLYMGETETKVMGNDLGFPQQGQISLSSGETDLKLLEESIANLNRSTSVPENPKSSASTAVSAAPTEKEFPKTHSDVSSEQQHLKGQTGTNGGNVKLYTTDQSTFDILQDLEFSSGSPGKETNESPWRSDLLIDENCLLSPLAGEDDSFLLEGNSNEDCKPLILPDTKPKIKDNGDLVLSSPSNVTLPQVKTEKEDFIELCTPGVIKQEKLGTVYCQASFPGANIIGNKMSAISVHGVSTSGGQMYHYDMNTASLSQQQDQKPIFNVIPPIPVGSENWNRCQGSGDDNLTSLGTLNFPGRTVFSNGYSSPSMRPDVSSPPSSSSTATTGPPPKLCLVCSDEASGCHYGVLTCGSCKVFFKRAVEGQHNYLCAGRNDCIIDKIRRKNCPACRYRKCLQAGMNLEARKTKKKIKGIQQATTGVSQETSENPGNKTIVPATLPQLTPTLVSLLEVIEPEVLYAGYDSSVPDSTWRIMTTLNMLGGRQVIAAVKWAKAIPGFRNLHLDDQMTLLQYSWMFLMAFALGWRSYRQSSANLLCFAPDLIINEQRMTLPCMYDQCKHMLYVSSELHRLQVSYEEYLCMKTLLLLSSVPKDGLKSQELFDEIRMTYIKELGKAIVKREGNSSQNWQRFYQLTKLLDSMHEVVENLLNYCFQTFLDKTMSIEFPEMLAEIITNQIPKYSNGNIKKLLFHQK
Protocol: as §2

Compound	NF-κB transactivation activity (NF-κB [1])	NF-κB DNA binding (NF-κB [2])	expression of IL-1α protein (nuclear staining) (IL-1α)	IRAK1 and IκBα protein abundance [3]	ability of senescent conditioned media to stimulate T47D invasiveness [4]	ATP levels (HCA2 human fibroblasts)	GR localization [5]
C[C@]12C[C@H](O)[C@H]3[C@@H](CCC4=CC(=O)CC[C@@]43C)[C@@H]1CC[C@@H]2C(=O)CO [corticosterone]	significantly decreased	significantly decreased	suppressed expression of IL-1α protein	restored IRAK1 and IκBα proteins to near-presenescent levels	near-presenescent levels	without altering ATP levels	translocated into the nucleus
C[C@]12CCC(=O)C=C1CC[C@@H]1[C@@H]2[C@@H](O)C[C@@]2(C)[C@H]1CC[C@]2(O)C(=O)CO [cortisol]	significantly decreased	significantly decreased	suppressed expression of IL-1α protein	restored IRAK1 and IκBα proteins to near-presenescent levels	near-presenescent levels	without altering ATP levels	translocated into the nucleus
